Test results from paper PMC6784148 (Toxins, 2019).
Read-outs that look alike come from different tables or passages of the source.

What was measured:
[1] = test system: intestinal porcine epithelial cell line (IPEC-J2)
in vitro = conditions: pig
HepG2 cells = conditions: up until a concentration of 100 µM; cited from earlier work
[2] = test system: intestinal porcine epithelial cell line (IPEC-J2); assay: cells; conditions: Sus scrofa, IPEC-J2, 48 h
rats = test system: rats; parameters: method as in PMID 9872769; conditions: at levels of 0.05 and 0.1%; cited from earlier work
HCEC-1CT cells = test system: HCEC-1CT cells; parameters: method as in PMID 29248571; conditions: after 48 h; cited from earlier work
HT29 cells = test system: HT29 cells; parameters: method as in PMID 29248571; conditions: after 48 h; cited from earlier work
[3] = test system: three different cancer cell lines; parameters: method as in PMID 1172201; conditions: cited from earlier work
[4] = pigs; cited from earlier work
[5] = parameters: method as in PMID 24239892, PMID 22008903; conditions: cited from earlier work
THP-1 monocytes = test system: THP-1 monocytes; parameters: method as in doi:10.3920/WMJ2014.1861; conditions: cited from earlier work
Caco-2 cells = test system: Caco-2 cells; parameters: method as in doi:10.3920/WMJ2014.1861; conditions: 780 µM, 48 h of incubation; cited from earlier work
[6] = test system: glucuronidation of DON in human liver microsomes; parameters: method as in PMID 31049613, PMID 29465119; conditions: cited from earlier work

Compound: O=C(O)CC[N+](=O)[O-] [3-nitropropionic acid]
- Negative effects on IPEC-J2 in the tested concentration range [1]: None

Compound: Cc1cc(O)cc2oc(=O)c3c(O)cc(O)cc3c12 [Alternariol]
- viability (in vitro): ~50%
- viability at 20 µM (in vitro): 76.3%
- Cytotoxic effect on IPEC-J2 (in words) [1]: slight decrease in viability
- Relative IC50 value [1]: 5232 µg/kg
- Cell viability of HepG2 cells (HepG2 cells): did not decrease in a concentration-dependent manner
- IC50 ([2]; read-out: Relative IC50 value): 20.3 µM

Compound: CCC(=O)CCCCC[C@@H]1NC(=O)[C@H]2CCCCN2C(=O)[C@H]([C@@H](C)CC)NC(=O)[C@H](Cc2cn(OC)c3ccccc23)NC1=O [Apicidin]
- Toxic effects in rats (rats): leading to death
- Absolute IC50 value [1]: 324 µg/kg
- Relative IC50 value [1]: 306 µg/kg
- IC50 ([2]; read-out: Absolute IC50 value): 0.52 µM
- IC50 ([2]; read-out: Relative IC50 value): 0.49 µM

Compound: COC1=C(C2=C(OC)C(=O)c3cc4oc(C)cc(=O)c4c(O)c3C2=O)C(=O)c2c(cc3oc(C)cc(=O)c3c2O)C1=O [Aurofusarin]
- Concentration at which a significant decrease in viability starts (HCEC-1CT cells): 5 µM
- Concentration at which a significant decrease in viability starts (HT29 cells): 5 µM
- Absolute IC50 value [1]: 6766 µg/kg
- Relative IC50 value [1]: 5329 µg/kg
- IC50 ([1]; read-out: Absolute IC50 value): 11.9 µM
- IC50 ([1]; read-out: Relative IC50 value): 9.34 µM

Compound: COC1=CC(=O)c2c(c(O)c3oc4cc(OC)cc(C)c4c(=O)c3c2O)C1=O [Bikaverin]
- ED50 (cytotoxicity) [3]: 0.5 to 4.2 µg/mL
- ED50 (cytotoxicity) ([3]; µg/mL values expressed in µM): 1.31 to 10.99 µM
- Absolute IC50 value [1]: 711 µg/kg
- Relative IC50 value [1]: 287 µg/kg
- Viability after applying higher concentrations [1]: did not further decrease below 50%
- IC50 ([2]; read-out: Absolute IC50 value): 1.86 µM
- IC50 ([2]; read-out: Relative IC50 value): 0.75 µM

Compound: CC1=C[C@H]2O[C@@H]3[C@H](O)C[C@](C)([C@@]2(CO)[C@H](O)C1=O)[C@]31CO1 [Deoxynivalenol, reference compound]
- Bioavailability after oral administration [4]: 98.6% ± 23.6%
- Absolute IC50 value [1]: 756 µg/kg
- Relative IC50 value [1]: 557 µg/kg
- IC50 ([1]; read-out: Absolute IC50 value): 2.55 µM
- IC50 ([1]; read-out: Relative IC50 value): 1.88 µM

Compound: Cc1cc(O)c2c(c1)C(=O)c1cc(O)cc(O)c1C2=O [Emodin]
- Absolute IC50 value [1]: 5056 µg/kg
- Relative IC50 value [1]: 3537 µg/kg
- Viability after applying higher concentrations [1]: did not further decrease below 50%
- Viability at concentrations >50 µM [1]: did not further decrease
- IC50 ([2]; read-out: Absolute IC50 value): 18.7 µM
- IC50 ([2]; read-out: Relative IC50 value): 13.1 µM

Compound: CC[C@H](C)[C@H]1C(=O)O[C@H](C(C)C)C(=O)N(C)[C@@H](C(C)C)C(=O)O[C@H](C(C)C)C(=O)N(C)[C@@H](C(C)C)C(=O)O[C@H](C(C)C)C(=O)N1C [Enniatin B1]
- Oral bioavailability [5]: high oral bioavailability
- Absolute IC50 value [1]: 2400 µg/kg
- Relative IC50 value [1]: 1759 µg/kg
- IC50 ([2]; read-out: Absolute IC50 value): 3.67 µM
- IC50 ([2]; read-out: Relative IC50 value): 2.69 µM

Compound: CC(C)[C@H]1C(=O)O[C@H](C(C)C)C(=O)N(C)[C@@H](C(C)C)C(=O)O[C@H](C(C)C)C(=O)N(C)[C@@H](C(C)C)C(=O)O[C@H](C(C)C)C(=O)N1C [Enniatin B]
- Absolute IC50 value [1]: 2079 µg/kg
- Relative IC50 value [1]: 2233 µg/kg
- Viability after applying higher concentrations [1]: did not further decrease below 50%
- IC50 ([2]; read-out: Absolute IC50 value): 3.25 µM
- IC50 ([2]; read-out: Relative IC50 value): 3.49 µM

Compound: C/C=C/[C@@H]1C=C[C@@H]2C[C@H](C)CC[C@H]2[C@]1(C)/C(O)=C1/C(=O)[C@H](CO)N(C)C1=O [Equisetin]
- Cytotoxic effect on IPEC-J2 (in words) [1]: slight decrease in viability
- Relative IC50 value [1]: 4120 µg/kg
- Cell viability ([1]; 20 µM): 64.0% (±7.6%)
- IC50 ([1]; read-out: Relative IC50 value): 11 µM

Compound: CN1C(=O)[C@]23CC4=CC=C[C@H](O)[C@H]4N2C(=O)[C@@]1(CO)SS3 [Gliotoxin]
- Absolute IC50 value [1]: 209 µg/kg
- Relative IC50 value [1]: 206 µg/kg
- IC50 ([2]; read-out: Absolute IC50 value): 0.64 µM
- IC50 ([2]; read-out: Relative IC50 value): 0.63 µM

Compound: COc1c(C)c2c(c(O)c1C/C=C(\C)CCC(=O)O)C(=O)OC2 [Mycophenolic Acid, Mycophenolic acid]
- viability (in vitro): ≥ 66%
- Effect in THP-1 monocytes (THP-1 monocytes): no effect
- Abrupt decreased viability [1]: 26.1% ± 12.1%
- Cytotoxic effect on IPEC-J2 (in words) [1]: slight decrease in viability
- Relative IC50 value [1]: 170 µg/kg
- Viability at concentrations from 2.5 to 150 µM [1]: no further loss in viability
- IC50 ([1]; read-out: Relative IC50 value): 0.53 µM
- Decrease of mitochondrial activity (Caco-2 cells): 45%
- IC50 ([2]; read-out: Relative IC50 value): 0.543 µM

Compound: O=C1C=C2C(=CCOC2O)O1 (stereo not shown) [Patulin]
- Absolute IC50 value [1]: 495 µg/kg
- Relative IC50 value [1]: 490 µg/kg
- IC50 ([2]; read-out: Absolute IC50 value): 3.21 µM
- IC50 ([2]; read-out: Relative IC50 value): 3.18 µM

Compound: COc1cc(O)c2c(O)c3c(=O)cc(C)oc3cc2c1 [Rubrofusarin]
- viability at 50 µM (in vitro): 64 ± 8.7%
- Cytotoxic effect on IPEC-J2 (in words) [1]: slight decrease in viability
- Relative IC50 value [1]: 5865 µg/kg
- IC50 ([2]; read-out: Relative IC50 value): 21.5 µM

Compound: COc1cc(O)c2c(=O)oc3cc(O)cc(C)c3c2c1 [alternariol monomethyl ether]
- Negative effects on IPEC-J2 in the tested concentration range [1]: None

Compound: O=C1N[C@@H](Cc2c[nH]c3ccccc23)C(=O)N2CCC[C@@H]12 [brevianamid F]
- Negative effects on IPEC-J2 in the tested concentration range [1]: None

Compound: CC1(C)CCC[C@]2(C)[C@@H]3[C@H]1[C@@H](O)[C@@]2(C)C[C@H]3O [culmorin]
- Effect on glucuronidation of DON [6]: able to inhibit the glucuronidation of DON
- Cytotoxic effect on IPEC-J2 (in words) [1]: no cytotoxic effect
- Negative effects on IPEC-J2 in the tested concentration range [1]: None

Compound: O=C1N[C@@H](Cc2ccc(O)cc2)C(=O)N2CCC[C@@H]12 [cyclo-(L-Pro-L-Tyr)]
- Cytotoxic effect on IPEC-J2 (in words) [1]: non-cytotoxic
- Negative effects on IPEC-J2 in the tested concentration range [1]: None

Compound: CC(C)[C@@H]1NC(=O)[C@@H]2CCCN2C1=O [cyclo-(L-Pro-L-Val)]
- Negative effects on IPEC-J2 in the tested concentration range [1]: None

Compound: CCCCc1ccc(C(=O)O)nc1 [fusaric acid]
- Negative effects on IPEC-J2 in the tested concentration range [1]: None

Compound: O=c1cc(CO)occ1O [kojic acid]
- Negative effects on IPEC-J2 in the tested concentration range [1]: None

Compound: O=c1cc(O)c1=O [moniliformin]
- Negative effects on IPEC-J2 in the tested concentration range [1]: None

Compound: C=CC(C)(C)[C@@]12C[C@H]3C(=O)N/C(=C/c4c[nH]cn4)C(=O)N3[C@@H]1Nc1ccccc12 [roquefortine C]
- Negative effects on IPEC-J2 in the tested concentration range [1]: None

Compound: CC(C)C[C@@H]1NC(=O)[C@H](C)N(C)C(=O)CNC(=O)/C(=C/c2ccccc2)N(C)C1=O [tentoxin]
- Negative effects on IPEC-J2 in the tested concentration range [1]: None

Compound: OCCc1c[nH]c2ccccc12 [tryptophol]
- Negative effects on IPEC-J2 in the tested concentration range [1]: None

Compound: Beauvericin
- Absolute IC50 value [1]: 1905 µg/kg
- Relative IC50 value [1]: 1756 µg/kg
- IC50 ([1]; read-out: Absolute IC50 value): 2.43 µM
- IC50 ([1]; read-out: Relative IC50 value): 2.24 µM

Compound: Enniatin A
- Absolute IC50 value [1]: 2319 µg/kg
- Relative IC50 value [1]: 1964 µg/kg
- IC50 ([1]; read-out: Absolute IC50 value): 3.4 µM
- IC50 ([1]; read-out: Relative IC50 value): 2.88 µM

Compound: Enniatin A1
- Absolute IC50 value [1]: 2772 µg/kg
- Relative IC50 value [1]: 2151 µg/kg
- IC50 ([1]; read-out: Absolute IC50 value): 4.15 µM
- IC50 ([1]; read-out: Relative IC50 value): 3.22 µM
